Where “and” joins values, the source holds several entries; their conditions need not be identical. Equal values may be shown once. Read-outs that look alike come from different tables or passages of the source.
Columns and labels:
[1] = tested on: canine prostate; experiment: Chronic canine experiment: intraprostatic EtOH injection, four weeks observation, autopsy and histology
[2] = tested on: human prostate; experiment: Transperineal intraprostatic EtOH injection in heart-beating cadaveric organ donors; settings: for average volume of the lesion: five human prostates, 1 cm porous segment
[3] = tested on: canine prostate; settings: for lesion volume: 1 cm porous segment, 2 h after injection
Procedure: Intraprostatic ethanol injections were performed in eight Beagle dogs for acute experiments. Animals received premedication with medetomidin (0.004 mg/kg), metadon (0.3 mg/kg), and acepromazil (0.02 mg/kg). Anesthesia was induced with propofol (1.5-2 mg/kg) and maintained by propofol (10 mg/kg/hour) and fentanyl (0.24 mg/kg/hour). Prostate exposure was performed using lower midline abdominal incisions and blunt dissection of surrounding tissues. The porous needle was stabilized with a fixation apparatus attached to the operating table and was deployed with a protective sheath in the lateral lobe of the prostate. […] Where possible, the distal end of the sheath was kept at least 2 mm from the pseudocapsule. […] Injections in both lateral lobes of each canine were performed. […] In the remaining experiments, 0.5, 1, 1.5, or 2 ml was injected into each prostatic lobe. In five experiments, a needle with a 1 cm long microporous segment was used, while a 2 cm long segment was used in one experiment. The tissue resistance during injections was measured by including the pressure transduced between the pump and the needle. Two hours following the second injection, the animals were anaesthetised by an intramuscular injection of medetomidine and ketamine, followed by intravenous injection of pentobarbital, and euthanized using exsanguination.
Histology slides were converted to digital images.

`CCO` [EtOH, ethanol] was tested, and the “transient increase in body temperature” value ([1]; animals with wound swelling, lasted less than 24 hours) was 38.5 °C and 39 °C, the “extraprostatic leak during injection” value ([1]; chronic study) was “free of exptraprostatic leak” and the immediate complications ([1]; chronic study) was “No immediate complications occurred”. For the same molecule, the long-term complications ([1]; chronic study, four weeks observation) was “swelling of the wound in two animals and serous exudation in one animal”, the “damage to adjacent structures at prostatectomy” value ([1]; four weeks after injection) was “no damage to adjacent structures” and the “tissue defects on whole mount sections” value ([1]; four weeks after injection, H&E) was “tissue defects (cavities) in all prostatic lobes injected with 1, 1.5, and 2 ml”. The prostatic pseudocapsule area ([1]; four weeks after injection, histology) was “showed no abnormalities”, the “average volume of the lesion” value ([2]; 2 ml injected per lobe) was 0.978 mL and the “average volume of the lesion” value ([2]; 3 ml injected per lobe) was 1.742 mL. For the same molecule, the “lesion size with 3 ml relative to 2 ml” value ([2]; average, human prostates) was 1.78 ×, the extraprostatic tissue injury ([2]; human prostates) was “no evidence to the extraprostatic tissue injury was observed” and the lesion localization ([2]; human prostates) was “In all cases the lesion was localized within the prostate”. The prostatic capsule integrity ([2]; human prostates) was “remained intact”, the lesion volume ([3]; 0.5 ml EtOH injected per lobe) was 208±58 mm^3 and the lesion volume ([3]; 1.0 ml EtOH injected per lobe) was 588±112 mm^3. The lesion volume ([3]; 1.5 ml EtOH injected per lobe) was 791±338 mm^3, the “tissue infiltration with 2 cm porous segment needle” value ([3]; 2 cm porous segment compared with 1 cm) was “larger areas of tissue infiltration” and the lesion volume ([3]; 2.0 ml EtOH injected per lobe) was 1158±200 mm^3. For the same molecule, the “necrotic areas, share of the section” value ([3]; canine prostate section, FIG. 4) was “more than 80%”, the “extraprostatic leak during injection” value ([3]; dog, in vivo) was “No extraprostatic leak” and the prostatic pseudocapsule integrity ([3]; dog, in vivo) was “remained intact without evidence of disruption”.

From patent US20250058082A1, “TRANSPERINEAL, TRANSRECTAL OR TRANSURETHRAL ADMINISTRATION OF ANTI-PROSTATE CANCER AGENTS FOR TREATING PROSTATE CANCER” (JESSENIUS FACULTY OF MEDICINE OF COMENIUS UNIVERSITY IN …, priority 2021, published 2025)
